Assay results taken from patent US6649797B2, “Compounds and methods of use to treat infectious diseases” (The Picower Institute for Medical Research, priority 1996, dated 2003).
Like-named read-outs stand apart in the source and are kept apart here.

Key:
[1] = test system: monocyte and T lymphocyte cultures; assay: Cytotoxicity in monocyte and T lymphocyte cultures in vitro; type: cell-based
[2] = molecular target: T1, karyopherin α / purified recombinant MA (Human immunodeficiency virus type 1 group M subtype B, UniProt P04591); assay: Binding of karyopherin α to purified recombinant MA; type: biochemical, HIV-1
T1 construct: or to purified recombinant MA

[3] = test system: HIV-1; assay: Reverse transcription of HIV-1 in infected cells; type: cell-based
[4] = test system: Plasmodium falciparum; assay: Antimalarial activity in vitro, [3H]-hypoxanthine incorporation; type: cell-based; details: Plasmodium falciparum
Description: The antimalarial properties of the compounds of the invention can be analyzed by techniques, assays and experimental animal models well known in the art. For example, the inhibition of growth of Plasmodium falciparum in vitro by the compounds may be assessed by the hypoxanthine-incorporation method (Desjardins et al., 1979, Antimicrob. Ag. Chemother. 16:710-718). […] The in vivo efficacy of the compounds can also be tested in mouse models in which parasitemia is enumerated following administration of the compound (Ager, A. L. 1984, Rodent malaria models, pp 225-264. In Handbook of Experimental Pharmacology vol. 68, Antimalarial Drugs, Peters and Richards eds, Springer-Verlag, Berlin).
The antimalarial activity of the compounds was determined essentially as described in Desjardins et al. supra. Fifty μl of various concentrations of a compound of the invention, chloroquine, or pyrimethamine were added to the wells of microtiter plates, followed by 200 μl of ring-stage, synchronized, P. falciparum-infected erythrocytes (final hematocrit=1.5%, final parasitemia=1-5%). The plates were incubated for 24 hr in a candle jar kept at 37° C., and then 25 μl of [^3H]-hypoxanthine (Amersham, Arlington Heights, ILL.; 2.5 μl Ci/well) was added. The plates were then incubated for a further 24 hr, before harvesting onto Unifilter-96 GF/C filter-microplates (Packard; Meriden, Conn.). Twenty-five μl of Microscint scintillation fluid (Packard) was added to each well of the filter-microplate, which was subsequently counted in a Top-count microplate scintillation counter (Packard). The percent of [^3H]-hypoxanthine uptake relative to control infect-erythrocytes was used to determine the IC50 value for the compounds by non-linear regression for LD50 determination.

[5] = test system: HIV-1ADA; assay: HIV-1ADA replication in purified monocytes, RT activity in supernatant (FIG. 2); type: cell-based; details: Human immunodeficiency virus 1, Monocyte, monocytes without M-CSF
Description: FIGS. 2A-C. The effect of various concentrations of Compound No. 2 on RT activity in the supernatant of HIV-1-infected monocytes. FIG. 2A: Multiplicity of Infection (MOI) 1 ng p24/10^6 monocytes, culture d in presence of M-CSF. FIG. 2B: MOI 8 ng p24/10^6 monocytes, cultured in absence of M-CSF. FIG. 2C: MOI 0.8 ng p24/10^6 monocytes, cultured in absence of M-CSF.
The cultures were treated with none or between 10^−12 and 10^−6 M Compound No. 2 and, simultaneously with the beginning of treatment, the cells were exposed to the monocyte-tropic strain HIV-1ADA at about 0.01 TCID50/cell (1 ng p24/10^6 cells) for 2 hours. Samples were withdrawn at days 3, 6, 10, 14 and 17 after infection and assayed for reverse transcription activity.
FIGS. 2B and 2C show the effects of various concentrations of Compound No. 2 on the production of HIV-1 in monocyte cultures not supplemented with M-CSF. In these studies MOI, as determined by concentration of p24 antigen was; FIG. 2B (8 ng/10^6 cells) and FIG. 2C (0.8 ng/10^6 cells).
Primary human monocytes were obtained from peripheral blood by Ficoll-Hypaque centrifugation and adherence to plastic as described previously. Gartner S. P., et al., 1986, Science 233:215. […]
Virus stock and infection. […] The concentration of HIV-1 was determined by immunoassay of viral p24, concentration; using a conversion factor of 1 ng/200 HIV-1 particles. […]

[6] = test system: HIV-1; assay: AZT and Compound No. 2 in combination, HIV-1 infected monocyte cultures, RT activity; type: cell-based; details: for reverse transcriptase activity in supernatant: 100 nM Compound No. 2, AZT 0
Description: Primary human monocytes were obtained from peripheral blood by Ficoll-Hypaque centrifugation and adherence to plastic as described previously. Gartner S. P., et al., 1986, Science 233:215. Briefly, after Ficoll-Hypaque (Pharmacia) separation, PBMCs were washed 4 times with DMEM (the last wash was done at 800 rpm to remove platelets) and resuspended in monocyte culture medium [DMEM supplemented with 1 mM glutamine, 10% heat-inactivated human serum, 1% penicillin+streptomycin mixture (Sigma)] at a density of 6×10^6 cells/ml. Cells were seeded in 24-well plates (1 ml per well) and incubated for 2 h at 37° C, 5% CO2. Following incubation, cells were washed 3 times with DMEM to remove non-adherent cells and incubation was continued in monocyte culture medium supplemented with 250 U/ml human M-CSF (Sigma). Cells were allowed to mature for 7 days prior to infection with the monocyte-tropic strain, HIV-1ADA. Nuovo, G. J., et al., 1992, Diagn. Mol. Pathol. 1:98. Two hours after infection, cells were washed with medium and cultured in RPMI supplemented with 10% human serum. In experiments where PCR analysis was performed, virus was pretreated with RNAse-free DNAse (Boehinger-Mannheim) for 2 h at room temperature and then filtered though a 0.2 μm pore nitrocellulose filter prior to infection.
For the reverse transcriptase (RT) assay, 10 μl of culture supernatant was added to 40 μl of reaction mixture (final composition was 50 mM Tris-HCl, pH 7.8; 20 MM KCl; 5 MM MgCl2; 1 mM DTT; 0.1% Triton X-100; 0.2 OD/ml polyA; 0.2 OD/ml oligo(dT)12-18; and 40 μCi/ml ^3H-dTTP (76 Ci/mmol, DuPont) and incubated 2 hr at 37° C. 5 μl of the reaction mixture was then spotted onto the DE 81 (Whatman) paper. Paper was air dried and washed 5 times with 5% Na2HPO4, followed by rinsing with distilled water. After air drying, paper was put on a Flexi Filter plate (Packard), covered with scintillation fluid and counted in a Top Count Microplate Counter (Packard). Results are expressed as counts per minute in 1 ml of supernatant (cpm/ml).
In view of these premises, the effects on HIV-1 replication in human monocyte cultures of the various concentrations of AZT, alone or in combination with 100 nM Compound No. 2, were tested using the protocols of Sections 6.2.1 and 6.2.2. Drugs were added to the monocyte cultures together with HIV-1 at about 10^5 TCID/ml. The concentration of drugs was maintained on refeeding. HIV-1 replication was assessed by assay of the supernatant for reverse transcriptase activity. The results are expressed as mean ± std. dev. (cpm×10^−3) in Table V.

| Compound | 50% toxic dose [1] [mM] | inhibition of binding of karyopherin α to purified recombinant MA [2] | inhibition of reverse transcription of HIV-1 in infected cells [3] | IC50 ([4]; FCR3, clone FCR-3, ± standard deviation, read-out: IC50) [nM] | IC50 ([4]; HB3, clone HB3, ± standard deviation, read-out: IC50) [nM] | IC50 ([4]; clone D10, ± standard deviation, read-out: IC50) [nM] | IC50 ([4]; series of cloned parasites with different sensitivities to chloroquine or pyrimethamine, read-out: median inhibitory concentration (IC50)) [nM] | IC50 ([5]; MOI 0.8 ng p24/10^6 cells (FIG. 2C)) [nM] | IC50 ([5]; MOI 8 ng p24/10^6 cells (FIG. 2B)) [nM] | reverse transcriptase activity in supernatant ([6]; day-7) [cpm×10^−3] | reverse transcriptase activity in supernatant ([6]; day-11) [cpm×10^−3] | reduction in RT activity ([6]; day-11, 100 nM Compound No. 2 alone) [%] |
| --- | --- | --- | --- | --- | --- | --- | --- | --- | --- | --- | --- | --- |
| CC(=O)c1cc(Nc2cc(C)[n+](C)c(N)n2)cc(C(C)=O)c1 [CNI-0294, 2-Amino-4-(3,5-diacetylphenyl)amino-1,6-dimethylpyrimidinium chloride] | > 1 | did not inhibit | did not significantly inhibit | 3090 ± 300 | 1790 ± 270 | 4000 ± 410 | 1790 to 4000 |  |  |  |  |  |
| CC(=O)c1cc(Nc2cc(C)[n+](C)c(N)n2)cc(C(C)=O)c1.[I-] [Compound No. 2, 2-amino-4-(3,5-diacetylphenyl)amino-1,6-dimethylpyrimidinium iodide] |  |  |  |  |  |  |  | < 1 | ~10 | 0.37 ± 0.07 | 0.72 ± 0.30 | ~60 |
